Source: publication PMC11858513, “Antibiofilm Activities of Tritrpticin Analogs Against Pathogenic Pseudomonas aeruginosa PA01 Strains” (Molecules, 2025)
Values after ≈ are worked out from the molar mass of the structure shown. Where two headings read alike, the source gives them in different places. Non-standard residues stand in square brackets, D forms with d. Residues, ends and D or L forms follow the SMILES beside them. Orn = NCCC[C@H](N)C(=O)O; Dab = NCC[C@H](N)C(=O)O

Legend:
[1] = system: P. aeruginosa PAO1 GFP; assay: MBEC, biofilm eradication, GFP fluorescence method; type: cell-based, Pseudomonas aeruginosa
Protocol: (§1) Figure 1 The MIC (A), MBIC (B) and MBEC (C) values for the tritrpticin analog peptides were assessed against Pa PAO1 GFP. The MIC values were determined by measuring the absorbance of bacterial cells at 600 nm. The MBIC and MBEC values were determined by recording the fluorescence at 480 nm and 530 nm from the biofilms of GFP-expressing PAO1. Three biological replicates were run for each test sample, and the mean was calculated for the recorded absorption or fluorescence values. In the graphs, the error bars represent the standard deviation (±SD).
(§2) Figure 2 The MIC (A), MBIC (B) and MBEC (C) values for the tritrpticin-Lys derivative peptides were assessed against Pa PAO1 GFP. The MIC values were determined by measuring the absorbance of bacterial cells at 600 nm. The MBIC and MBEC values were determined by recording the fluorescence at 480 nm and 530 nm from the biofilms of GFP-expressing PAO1. Three replicates were run for each sample, the values were averaged and the error bars represent the standard deviation (±SD).
(§3) The methods to determine the MIC, MBIC and MBEC have been described in detail in our previous publication. The green fluorescent protein (GFP)-producing P. aeruginosa and S. aureus strains that were used in this work were also described in the earlier publication. Fluorescence detection was used as the main method to estimate the number of cells entrapped in the biofilm matrix. The methodology used for evaluation of the antibiofilm properties against an original Pseudomonas PA01 strain by crystal violet dye staining and the use of the Calgary biofilm device has been described elsewhere. The regular PA01 strain was provided by Dr. J. Harrison, Calgary. All measurements were carried out on an Eppendorf AF2200 plate reader. Every 96-well plate included controls for bacterial cell growth without peptide treatment and media alone. All measurements were carried out in triplicate, and the values in the figures represent the average and the error bars are standard deviation.

[2] = system: S. aureus GFP; assay: MBIC, GFP fluorescence method; type: cell-based, Staphylococcus aureus; details: Table 4, Sa GFP, 10% TSB and 0.1% glucose, mean of three biological replicates
Protocol: (§4) Figure 3 The MIC (A), MBIC (B) and MBEC (C) values for the tritrpticin analog peptides were assessed against Sa GFP. The MIC values were determined by measuring the absorbance of bacterial cells at 600 nm. The MBIC and MBEC values were determined by recording the fluorescence at 480 nm and 530 nm from the biofilms of GFP-expressing Sa. Three biological replicates were run for each test sample, and the mean was calculated for the recorded absorption or fluorescence values. In the graphs, the error bars represent the standard deviation (±SD).
as §3

[3] = system: S. aureus GFP; assay: MIC against planktonic cells, absorbance at 600 nm; type: cell-based, Staphylococcus aureus; details: Table 4; Sa GFP, 10% TSB and 0.1% glucose; absorbance 600 nm; mean of three biological replicates
Protocol: as §4, §3

[4] = system: P. aeruginosa PAO1 GFP; assay: MIC against planktonic cells, absorbance at 600 nm; type: cell-based, Pseudomonas aeruginosa; details: absorbance 600 nm
Protocol: as §1, §2, §3

[5] = system: P. aeruginosa PAO1; type: cell-based
Protocol: (§5) We note the close agreement with the MBIC and MBEC values determined by the fluorescence and CV methods, similar to what we found in our previous work for an S. aureus MRSA strain [23]. We also re-evaluated the MBEC values that are measured using the Calgary biofilm device (CBD), where biofilms form on pegs, rather than at the bottom of the 96-well plates. […] In particular, we find that the single Pro9Ala Tritrp-P9A-substituted version has better MIC, MBIC and MBEC activities than the parent peptide as well as the Tritrp-P59A analog with both prolines substituted to Ala.
(§6) Figure 4 The MIC (A), MBIC (B) and MBRC (C) values for the peptides were assessed against P. aeruginosa PAO1 in the presence of 1× BM2. The inhibition of planktonic cells, the inhibition of biofilm cells and the reduction in biofilm cells were determined for the peptides by recording of the planktonic cells at 600 nm and quantification of biofilms formed by Pa PAO1 using crystal violet at 595 nm, respectively. Three biological replicates were run for each test sample, and the mean was calculated for the recorded absorption values. Data points with error bars indicate the standard deviation (±SD).
(§7) Figure 6 The MIC (A), MBIC (B) and MBEC (C) values for the tritrpticin-Lys derivatives against P. aeruginosa PAO1 were assessed by the crystal violet (CV) assay for the measurement of inhibition of biofilm formation and eradication of biofilm cells, respectively. The biofilm cells were rinsed, stained with 0.1% crystal violet for 15 min and then rinsed again. The CV was released from biofilm cells by the addition of 95% ethanol and quantified by reading on a spectrometer at 595 nm. Three replicates were run for each sample, the values were averaged and the error bars represent the standard deviation (±SD).
as §3

[6] = system: P. aeruginosa PAO1 GFP; assay: MBIC, prevention of biofilm formation, GFP fluorescence method; type: cell-based, Pseudomonas aeruginosa
Protocol: as §1, §2, §3

[7] = system: S. aureus GFP; assay: MBEC, GFP fluorescence method; type: cell-based, Staphylococcus aureus; details: Table 4, Sa GFP, 10% TSB and 0.1% glucose, mean of three biological replicates
Protocol: as §4, §3

[8] = system: P. aeruginosa PAO1; type: cell-based, Pseudomonas aeruginosa; details: Table 5; PAO1, 1x BM2; biofilms on pegs, cells plated and counted; three biological replicates
Protocol: as §5
Figure 5 The MBEC values for the peptides were assessed against P. aeruginosa PAO1 in the presence of 1× BM2 medium. The eradication of biofilm cells was determined for the peptides using the counting of biofilm cells formed by Pa PAO1. Three biological replicates were run for each test sample, and the mean was calculated for counted cell values. Data points with error bars indicate the standard deviation (±SD).
as §3

[9] = system: S. aureus GFP; type: cell-based, Staphylococcus aureus; details: Table 4; Sa GFP; lowest concentration of peptide with no bacterial growth seen on the spot agar plate
From the text: as §3

[10] = system: P. aeruginosa PAO1; type: cell-based, Pseudomonas aeruginosa; details: Table 6, Tritrp-Lys derivatives; PAO1, BM2; absorbance 600 nm; three replicates; unit not given
Protocol: as §6, §7, §3

[11] = Table 2, BM2 medium, mean of three biological replicates
[12] = Table 5, PAO1, 1x BM2, crystal violet at 595 nm, mean of three biological replicates
[13] = Table 5, minimum biofilm reduction concentration, PAO1, 1x BM2, crystal violet at 595 nm, mean of three biological replicates
[14] = Table 3, Tritrp-Lys derivatives, BM2 medium, three replicates
[15] = Table 6, Tritrp-Lys derivatives, PAO1, BM2, 0.1% crystal violet 15 min, released with 95% ethanol, 595 nm, three replicates, unit not given

SMILES | MBEC at 488 and 530 nm LD50 [1, 11] | MBEC at 488 and 530 nm LD90 [1, 11] | MBIC at 488 and 530 nm LD50 [2] | MBIC at 488 and 530 nm LD90 [2] | MIC at 600 nm LD50 [3] | MIC at 600 nm LD90 [3] | MIC at 600 nm LD50 [4, 11] | MIC at 600 nm LD90 [4, 11] | MBIC at 488 and 530 nm LD50 [6, 11] | MBIC at 488 and 530 nm LD90 [6, 11] | MBEC at 488 and 530 nm LD50 [7] | MBEC at 488 and 530 nm LD90 [7] | MBC Agar Plate [9] | MBEC at 488 and 530 nm LD50 [1, 14] | MBEC at 488 and 530 nm LD90 [1, 14] | MIC at 600 nm LD50 [10] | MIC at 600 nm LD90 [10] | MIC at 600 nm LD50 [4, 14] | MIC at 600 nm LD90 [4, 14] | MBEC (CV at 595 nm) LD90 [5, 15] | further results
CC[C@H](C)[C@H](N)C(=O)N[C@@H](CC(C)C)C(=O)N1CCC[C@H]1C(=O)N[C@@H](Cc1c[nH]c2ccccc12)C(=O)N[C@@H](CCCCN)C(=O)N[C@@H](Cc1c[nH]c2ccccc12)C(=O)N1CCC[C@H]1C(=O)N[C@@H](Cc1c[nH]c2ccccc12)C(=O)N[C@@H](Cc1c[nH]c2ccccc12)C(=O)N1CCC[C@H]1C(=O)N[C@@H](Cc1c[nH]c2ccccc12)C(=O)N[C@@H](CCCNC(=N)N)C(=O)N[C@@H](CCCNC(=N)N)C(N)=O [Indolicidin, reference compound] | 32 µmol/L | >128 µmol/L | 4 µmol/L | 8 µmol/L | 4 µM (≈ 7.63 µg/mL) | 8 µM (≈ 15.3 µg/mL) | 8 µM (≈ 15.3 µg/mL) | 32 µM (≈ 61 µg/mL) | 8 µmol/L | 32 µmol/L | 2 µmol/L | 8 µmol/L | 8 µM (≈ 15.3 µg/mL) |  |  |  |  |  |  |  | MBIC (CV at 595 nm) LD50 [5, 12]: 32 µmol/L; MBIC (CV at 595 nm) LD90 [5, 12]: 32 µmol/L; MBRC (CV at 595 nm) LD50 [5, 13]: 64 µmol/L; MBRC (CV at 595 nm) LD90 [5, 13]: 64 µmol/L; MBEC from Calgary Biofilm Device (CBD) LD50 [8]: 128 µmol/L; MBEC from Calgary Biofilm Device (CBD) LD90 [8]: 128 µmol/L
N=C(N)NCCC[C@H](NC(=O)[C@H](CCCNC(=N)N)NC(=O)[C@@H](N)CCCNC(=N)N)C(=O)N[C@@H](Cc1c[nH]c2ccccc12)C(=O)N[C@@H](Cc1c[nH]c2ccccc12)C(=O)N[C@@H](Cc1c[nH]c2ccccc12)C(N)=O [RRRWWW-NH2] (H-RRRWWW-NH2) | 64 µmol/L | >128 µmol/L | 1 µmol/L | 1 µmol/L | 1 µM (≈ 1.04 µg/mL) | 1 µM (≈ 1.04 µg/mL) | 32 µM (≈ 33.4 µg/mL) | 128 µM (≈ 134 µg/mL) | 16 µmol/L | 128 µmol/L | 0.5 µmol/L | 4 µmol/L | 4 µM (≈ 4.18 µg/mL) |  |  |  |  |  |  |  | 
N=C(N)NCCC[C@H](NC(=O)[C@H](Cc1c[nH]c2ccccc12)NC(=O)[C@H](Cc1c[nH]c2ccccc12)NC(=O)[C@H](Cc1c[nH]c2ccccc12)NC(=O)[C@H](CCCNC(=N)N)NC(=O)[C@@H](N)CCCNC(=N)N)C(N)=O [RRWWWR-NH2] (H-RRWWWR-NH2) | 128 µmol/L | >128 µmol/L | 1 µmol/L | 1 µmol/L | 1 µM (≈ 1.04 µg/mL) | 1 µM (≈ 1.04 µg/mL) | 64 µM (≈ 66.8 µg/mL) | 128 µM (≈ 134 µg/mL) | 16 µmol/L | 128 µmol/L | 1 µmol/L | 4 µmol/L | 4 µM (≈ 4.18 µg/mL) |  |  |  |  |  |  |  | 
CC(C)C[C@H](NC(=O)[C@H](Cc1ccccc1)NC(=O)[C@@H]1CCCN1C(=O)[C@H](Cc1c[nH]c2ccccc12)NC(=O)[C@H](Cc1c[nH]c2ccccc12)NC(=O)[C@H](Cc1c[nH]c2ccccc12)NC(=O)[C@@H]1CCCN1C(=O)[C@H](Cc1ccccc1)NC(=O)[C@H](CCN)NC(=O)[C@H](CCN)NC(=O)[C@@H](N)C(C)C)C(=O)N[C@@H](CCN)C(=O)N[C@@H](CCN)C(N)=O [Tritrp-Dab] (H-V[Dab][Dab]FPWWWPFL[Dab][Dab]-NH2; N-terminus assumed) |  |  |  |  |  |  |  |  |  |  |  |  |  | 16 µmol/L | 64 µmol/L | 16 | 16 | 8 µM (≈ 13.4 µg/mL) | 16 µM (≈ 26.8 µg/mL) | 64 | MBIC (CV at 595 nm) LD90 [5, 15]: 16; MBIC at 488 and 530 nm LD50 [6, 14]: 8 µmol/L; MBIC at 488 and 530 nm LD90 [6, 14]: 16 µmol/L
CC(C)C[C@H](NC(=O)[C@H](Cc1ccccc1)NC(=O)[C@@H]1CCCN1C(=O)[C@H](Cc1c[nH]c2ccccc12)NC(=O)[C@H](Cc1c[nH]c2ccccc12)NC(=O)[C@H](Cc1c[nH]c2ccccc12)NC(=O)[C@@H]1CCCN1C(=O)[C@H](Cc1ccccc1)NC(=O)[C@H](CCCN)NC(=O)[C@H](CCCN)NC(=O)[C@@H](N)C(C)C)C(=O)N[C@@H](CCCN)C(=O)N[C@@H](CCCN)C(N)=O [Tritrp-Orn] (H-V[Orn][Orn]FPWWWPFL[Orn][Orn]-NH2; N-terminus assumed) |  |  |  |  |  |  |  |  |  |  |  |  |  | 64 µmol/L | 128 µmol/L | 16 | 16 | 16 µM (≈ 27.7 µg/mL) | 16 µM (≈ 27.7 µg/mL) | 128 | MBIC (CV at 595 nm) LD90 [5, 15]: 32; MBIC at 488 and 530 nm LD50 [6, 14]: 16 µmol/L; MBIC at 488 and 530 nm LD90 [6, 14]: 16 µmol/L
